In patent US20230013823A1, “INHIBITORS OF HUMAN IMMUNODEFICIENCY VIRUS REPLICATION” (VIV HEALTHCARE UK (No. 5) LIMITED, priority 2019, published 2023):

Experiments:
[1] = tested on: recombinant NL4-3 virus (Renilla luciferase in nef); assay: HIV cell culture assay (antiviral activity, luciferase readout in MT-2 cells); format: cell-based; conditions: Renilla, NL43
Procedure: HIV cell culture assay—MT=2 cells, 293T cells and the proviral DNA clone of NL4-3 virus were obtained from the NIH AIDS Research and Reference Reagent Program. MT=2 cells were propagated in RPMI 1640 media supplemented with 10% heat inactivated fetal bovine serum (FBS), […] penicillin G and up to 100 units/mL streptomycin. The 293T cells were propagated in DMEM media supplemented with 10% heat inactivated FBS, […] penicillin G and […] streptomycin. A recombinant NL4-3 proviral clone, in which a section of the nef gene was replaced with the Renilla luciferase gene, was used to make the reference virus used in these studies. The recombinant virus was prepared through transfection of the recombinant NL4-3 proviral clone into 293T cells using Transit-293 Transfection Reagent from Mirus Bio LLC (Madison, Wis.). Supernatent was harvested after 2-3 days and the amount of virus present was titered in MT=2 cells using luciferase enzyme activity as a marker by measuring luciferase enzyme activity. Luciferase was quantitated using the EnduRen Live Cell Substrate from Promega (Madison, Wis.). Antiviral activities of compounds toward the recombinant virus were quantified by measuring luciferase activity in MT=2 cells infected for 4-5 days with the recombinant virus in the presence of serial dilutions of the compound.
The 50% effective concentration (EC50) was calculated by using the exponential form of the median effect equation where (Fa)=1/[1+(ED50/drug conc.)m] (Johnson V A, Byington R T. Infectivity Assay. In Techniques in HIV Research. ed. Aldovini A, Walker B D. 71-76. New York: Stockton Press. 1990). The 50% inhibitory concentration (EC50) was calculated by using the exponential form of the median effect equation where percent inhibition=1/[1+(EC50/drug concentration)m], where m is a parameter that reflects the slope of the concentration-response curve.

[2] = Compound cytotoxicity, XTT-based colorimetric assay; format: cell-based; conditions: human; uninfected MT2 cells, day 4, XTT
Procedure: Compound cytotoxicity and the corresponding CC50 values were determined using the same protocol as described in the antiviral assay except that uninfected cells were used. Cytotoxicity was assessed on day 4 in uninfected MT2 cells by using an XTT (2,3-bis[2-Methoxy-4-nitro-5-sulfophenyl]-2H-tetrazolium-5-carboxyanilide inner salt)-based colorimetric assay (Sigma-Aldrich, St Louis, Mo.).

## COc1nc(C)cc(-c2ccc3c(=O)n(-c4ccc(Cl)c5c(NS(C)(=O)=O)nn(C)c45)c([C@H](Cc4cc(F)cc(F)c4)NC(=O)Cn4nc(C(F)F)c5c4C(F)(F)[C@@H]4C[C@H]54)nc3c2)n1 (atropisomer, axis not shown; (P)) [Example 16, N—((S)-1-((3P)-3-(4-chloro-1-methyl-3-(methylsulfonamido)-1H-indazol-7-yl)-7-(2-methoxy-6-methylpyrimidin-4-yl)-4-oxo-3,4-dihydroquinazolin-2-yl)-2-(3,5-difluorophenyl)ethyl)-2-((3bS,4aR)-3-(difluoromethyl)-5,5-difluoro-3b,4,4a,5-tetrahydro-1H-cyclopropa[3,4]cyclopenta[1,2-c]pyrazol-1-yl)acetamide]
[1]
  EC50: 110 pM
[2]
  CC50 at 4 days: > 500000 pM

## Cc1cc(-c2ccc3c(=O)n(-c4ccc(Cl)c5c(NS(C)(=O)=O)nn(C)c45)c([C@H](Cc4cc(F)cc(F)c4)NC(=O)Cn4nc(C(F)F)c5c4C(F)(F)[C@@H]4C[C@H]54)nc3c2)nn1CC(C)(F)F (atropisomer, axis not shown; (P)) [Example 68, N—((S)-1-((3P)-3-(4-chloro-1-methyl-3-(methylsulfonamido)-1H-indazol-7-yl)-7-(1-(2,2-difluoropropyl)-5-methyl-1H-pyrazol-3-yl)-4-oxo-3,4-dihydroquinazolin-2-yl)-2-(3,5-difluorophenyl)ethyl)-2-((3bS,4aR)-3-(difluoromethyl)-5,5-difluoro-3b,4,4a,5-tetrahydro-1H-cyclopropa[3,4]cyclopenta[1,2-c]pyrazol-1-yl)acetamide]
[1]
  EC50: 96 pM
[2]
  CC50 at 4 days: > 100000 pM

## Cn1nc(NS(C)(=O)=O)c2c(Cl)ccc(-n3c([C@H](Cc4cc(F)cc(F)c4)NC(=O)Cn4nc(C(F)F)c5c4C(F)(F)[C@@H]4C[C@H]54)nc4cc(-c5cnn(CC(F)(F)F)c5)ccc4c3=O)c21 (atropisomer, axis not shown; (P)) [Example 41, N—((S)-1-((3P)-3-(4-chloro-1-methyl-3-(methylsulfonamido)-1H-indazol-7-yl)-4-oxo-7-(1-(2,2,2-trifluoroethyl)-1H-pyrazol-4-yl)-3,4-dihydroquinazolin-2-yl)-2-(3,5-difluorophenyl)ethyl)-2-((3bS,4aR)-3-(difluoromethyl)-5,5-difluoro-3b,4,4a,5-tetrahydro-1H-cyclopropa[3,4]cyclopenta[1,2-c]pyrazol-1-yl)acetamide]
[1]
  EC50: 97 pM
[2]
  CC50 at 4 days: > 100000 pM

## Cn1nc(NS(C)(=O)=O)c2c(Cl)ccc(-n3c([C@H](Cc4cc(F)cc(F)c4)NC(=O)Cn4nc(C(F)F)c5c4C(F)(F)[C@@H]4C[C@H]54)nc4cc(-c5cnn(C6CC6)c5)ccc4c3=O)c21 (atropisomer, axis not shown; (P)) [Example 40, N—((S)-1-((3P)-3-(4-chloro-1-methyl-3-(methylsulfonamido)-1H-indazol-7-yl)-7-(1-cyclopropyl-1H-pyrazol-4-yl)-4-oxo-3,4-dihydroquinazolin-2-yl)-2-(3,5-difluorophenyl)ethyl)-2-((3bS,4aR)-3-(difluoromethyl)-5,5-difluoro-3b,4,4a,5-tetrahydro-1H-cyclopropa[3,4]cyclopenta[1,2-c]pyrazol-1-yl)acetamide]
[1]
  EC50: 82 pM
[2]
  CC50 at 4 days: > 100000 pM

## Cn1nc(NS(C)(=O)=O)c2c(Cl)ccc(-n3c([C@H](Cc4cc(F)cc(F)c4)NC(=O)Cn4nc(C(F)(F)F)c5c4C(F)(F)[C@@H]4C[C@H]54)nc4cc(-c5ccn(CC(C)(F)F)n5)ccc4c3=O)c21 (atropisomer, axis not shown; (P)) [Example 66, N—((S)-1-((3P)-3-(4-chloro-1-methyl-3-(methylsulfonamido)-1H-indazol-7-yl)-7-(1-(2,2-difluoropropyl)-1H-pyrazol-3-yl)-4-oxo-3,4-dihydroquinazolin-2-yl)-2-(3,5-difluorophenyl)ethyl)-2-((3bS,4aR)-5,5-difluoro-3-(trifluoromethyl)-3b,4,4a,5-tetrahydro-1H-cyclopropa[3,4]cyclopenta[1,2-c]pyrazol-1-yl)acetamide]
[1]
  EC50: 69 pM
[2]
  CC50 at 4 days: > 100000 pM

## Cn1nc(NS(C)(=O)=O)c2c(Cl)ccc(-n3c([C@H](Cc4cc(F)cc(F)c4)NC(=O)Cn4nc(C(F)F)c5c4C(F)(F)[C@@H]4C[C@H]54)nc4cc(-c5ccn(CCC(C)(F)F)n5)ccc4c3=O)c21 (atropisomer, axis not shown; (P)) [Example 52, N—((S)-1-((3P)-3-(4-chloro-1-methyl-3-(methylsulfonamido)-1H-indazol-7-yl)-7-(1-(3,3-difluorobutyl)-1H-pyrazol-3-yl)-4-oxo-3,4-dihydroquinazolin-2-yl)-2-(3,5-difluorophenyl)ethyl)-2-((3bS,4aR)-3-(difluoromethyl)-5,5-difluoro-3b,4,4a,5-tetrahydro-1H-cyclopropa[3,4]cyclopenta[1,2-c]pyrazol-1-yl)acetamide]
[1]
  EC50: 68 pM
[2]
  CC50 at 4 days: > 100000 pM

## COc1nccc(-c2ccc3c(=O)n(-c4ccc(Cl)c5c(NS(C)(=O)=O)nn(C)c45)c([C@H](Cc4cc(F)cc(F)c4)NC(=O)Cn4nc(C(F)F)c5c4C(F)(F)[C@@H]4C[C@H]54)nc3c2)n1 (atropisomer, axis not shown; (P)) [Example 5, N—((S)-1-((3P)-3-(4-chloro-1-methyl-3-(methylsulfonamido)-1H-indazol-7-yl)-7-(2-methoxypyrimidin-4-yl)-4-oxo-3,4-dihydroquinazolin-2-yl)-2-(3,5-difluorophenyl)ethyl)-2-((3bS,4aR)-3-(difluoromethyl)-5,5-difluoro-3b,4,4a,5-tetrahydro-1H-cyclopropa[3,4]cyclopenta[1,2-c]pyrazol-1-yl)acetamide]
[1]
  EC50: 83 pM
[2]
  CC50 at 4 days: > 500000 pM

## C[C@H](C(=O)N[C@@H](Cc1cc(F)cc(F)c1)c1nc2cc(-c3ccn(CC(C)(F)F)n3)ccc2c(=O)n1-c1ccc(Cl)c2c(NS(C)(=O)=O)nn(C)c12)n1ccc(C2CC2)n1 (atropisomer, axis not shown; (P)) [Example 65, (R)—N—((S)-1-((3P)-3-(4-chloro-1-methyl-3-(methylsulfonamido)-1H-indazol-7-yl)-7-(1-(2,2-difluoropropyl)-1H-pyrazol-3-yl)-4-oxo-3,4-dihydroquinazolin-2-yl)-2-(3,5-difluorophenyl)ethyl)-2-(3-cyclopropyl-1H-pyrazol-1-yl)propanamide]
[1]
  EC50: 170 pM
[2]
  CC50 at 4 days: > 100000 pM

## Cn1nc(NS(C)(=O)=O)c2c(Cl)ccc(-n3c([C@H](Cc4cc(F)cc(F)c4)NC(=O)Cn4nc(C(F)F)c5c4C(F)(F)[C@@H]4C[C@H]54)nc4cc(-c5ncc(Cl)cc5F)ccc4c3=O)c21 (atropisomer, axis not shown; (P)) [Example 8, N—((S)-1-((3P)-3-(4-chloro-1-methyl-3-(methylsulfonamido)-1H-indazol-7-yl)-7-(5-chloro-3-fluoropyridin-2-yl)-4-oxo-3,4-dihydroquinazolin-2-yl)-2-(3,5-difluorophenyl)ethyl)-2-((3bS,4aR)-3-(difluoromethyl)-5,5-difluoro-3b,4,4a,5-tetrahydro-1H-cyclopropa[3,4]cyclopenta[1,2-c]pyrazol-1-yl)acetamide]
[1]
  EC50: 300 pM
[2]
  CC50 at 4 days: > 500000 pM
